Measured values published in the supplement of paper PMC4862054.

Key:
Conditions in all cases: incubation time: 72 h
[1] = tested on: CAL-120; assay: normalised viability (% of control), CellTiter-Blue; higher = more viable cells (about 100 = DMSO control)
Outline: (§1)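 Compound dissolved in 5 µl medium was pre-loaded into 384-well plates, and breast cancer cell lines in 20 µl suspension were seeded on top and incubated 72 h. After adding 2.5 µl CellTiter-Blue reagent for 2 h at 37 °C, fluorescence was read at 560/590 nm. Plates were normalised to vehicle (100) and a positive kill control (0), with Z'-factor quality control. Each value is normalised viability at a single listed concentration from the series.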

[2] = tested on: DU-4475; assay: as above
Outline: as §1

[3] = tested on: MDA-MB-453; assay: as above
Outline: as §1

[4] = tested on: BT-474; assay: as above
Outline: as §1

[5] = tested on: BT-549; assay: as above
Outline: as §1

[6] = tested on: CAL-120; assay: as above; remark: listed apart in the source
Outline: as §1

[7] = tested on: CAL-148; assay: as above
Outline: as §1

[8] = tested on: CAL-51; assay: as above
Outline: as §1

[9] = tested on: CAL-85-1; assay: as above
Outline: as §1

[10] = tested on: DU-4475; assay: as above; remark: listed apart in the source
Outline: as §1

[11] = tested on: HCC1143; assay: as above
Outline: as §1

[12] = tested on: HCC1599; assay: as above
Outline: as §1

[13] = tested on: HCC1937; assay: as above
Outline: as §1

[14] = tested on: HDQ-P1; assay: as above
Outline: as §1

[15] = tested on: Hs578T; assay: as above
Outline: as §1

[16] = tested on: MDA-MB-231; assay: as above
Outline: as §1

[17] = tested on: MDA-MB-436; assay: as above
Outline: as §1

[18] = tested on: MDA-MB-453; assay: as above; remark: listed apart in the source
Outline: as §1

[19] = tested on: MDA-MB-468; assay: as above
Outline: as §1

[20] = tested on: MFM-223; assay: as above
Outline: as §1

[21] = tested on: SK-BR-3; assay: as above
Outline: as §1

[22] = tested on: CAL-51; assay: drug sensitivity score (DSS), CellTox Green (DSS (AUC-based score)); higher = stronger drug effect (viability inhibition or cytotoxicity); extreme values may be limits of the assay
Outline: (§2)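 The drug sensitivity score reflects the area under a fitted dose-response curve. To obtain it, breast cancer cells in 20 µl suspension were seeded into 384-well plates containing compound at 5 concentrations, 10-fold apart over a compound-specific 10,000-fold range, and incubated 72 h. CellTox Green fluorescence (485/520 nm) was read first and CellTiter-Glo luminescence second, after 10 min at room temperature. Each plate was normalised to 0.1 % DMSO and a positive kill control.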

[23] = tested on: HCC1143; assay: as above
Outline: as §2

[24] = tested on: MDA-MB-453; assay: as above
Outline: as §2

O=C(CCBr)N1CCN(C(=O)CCBr)CC1 [Pipobroman]
Conditions | normalised viability [%]
[1], 100 nM | 96
[2], 10 nM | 103
[3], 10 nM | 102
[4], 10 nM | 120
[4], 1000 nM | 102
[4], 10000 nM | 133
[5], 10 nM | 87.1
[5], 1000 nM | 87.1
[5], 10000 nM | 84.2
[6], 10 nM | 90.1
[6], 1000 nM | 103
[6], 10000 nM | 84.9
[7], 3 nM | 97.9
[7], 30 nM | 102
[7], 100 nM | 103
[8], 3 nM | 114
[8], 30 nM | 111
[8], 100 nM | 103
[9], 3 nM | 99.3
[9], 30 nM | 98.6
[9], 100 nM | 100
[10], 3 nM | 111
[10], 30 nM | 105
[10], 100 nM | 108
[11], 10 nM | 82
[11], 1000 nM | 86.2
[11], 10000 nM | 88.2
[12], 10 nM | 97
[12], 1000 nM | 92.8
[12], 10000 nM | 83.2
[13], 10 nM | 89.2
[13], 1000 nM | 77.9
[13], 10000 nM | 85.3
[14], 3 nM | 104
[14], 30 nM | 83.8
[14], 100 nM | 107
[15], 10 nM | 107
[15], 1000 nM | 97
[15], 10000 nM | 95.8
[16], 10 nM | 97.8
[16], 1000 nM | 104
[16], 10000 nM | 89.4
[17], 10 nM | 92.6
[17], 1000 nM | 98.7
[17], 10000 nM | 81.7
[18], 3 nM | 124
[18], 30 nM | 95.9
[18], 100 nM | 92.7
[19], 10 nM | 98
[19], 1000 nM | 94.2
[19], 10000 nM | 87.4
[20], 10 nM | 86.6
[20], 1000 nM | 90.4
[20], 10000 nM | 35.7
[21], 10 nM | 101
[21], 1000 nM | 119
[21], 10000 nM | 95.6

Conditions | drug sensitivity score
[22] | 0
[23] | 1.77
[24] | 0

c1cc(CN2CCCNCCNCCCNCC2)ccc1CN1CCCNCCNCCCNCC1 [Plerixafor]
Conditions | normalised viability [%]
[1], 25 nM | 80.1
[2], 2.5 nM | 93.1
[3], 2.5 nM | 106
[4], 2.5 nM | 101
[4], 250 nM | 117
[4], 2500 nM | 97.6
[5], 2.5 nM | 92.7
[5], 250 nM | 95.9
[5], 2500 nM | 120
[6], 2.5 nM | 93.1
[6], 250 nM | 91.4
[6], 2500 nM | 96
[7], 0.75 nM | 77.3
[7], 7.5 nM | 89.2
[7], 25 nM | 82.7
[8], 0.75 nM | 106
[8], 7.5 nM | 99
[8], 25 nM | 103
[9], 0.75 nM | 91.9
[9], 7.5 nM | 91.3
[9], 25 nM | 89.2
[10], 0.75 nM | 91.4
[10], 7.5 nM | 97.3
[10], 25 nM | 97.9
[11], 2.5 nM | 81
[11], 250 nM | 87.4
[11], 2500 nM | 83.2
[12], 2.5 nM | 107
[12], 250 nM | 98.7
[12], 2500 nM | 115
[13], 2.5 nM | 91.3
[13], 250 nM | 103
[13], 2500 nM | 111
[14], 0.75 nM | 106
[14], 7.5 nM | 123
[14], 25 nM | 111
[15], 2.5 nM | 117
[15], 250 nM | 97.3
[15], 2500 nM | 102
[16], 2.5 nM | 89.1
[16], 250 nM | 98.5
[16], 2500 nM | 102
[17], 2.5 nM | 116
[17], 250 nM | 107
[17], 2500 nM | 118
[18], 0.75 nM | 116
[18], 7.5 nM | 114
[18], 25 nM | 106
[19], 2.5 nM | 109
[19], 250 nM | 112
[19], 2500 nM | 108
[20], 2.5 nM | 109
[20], 250 nM | 104
[20], 2500 nM | 101
[21], 2.5 nM | 101
[21], 250 nM | 99.7
[21], 2500 nM | 106

Conditions | drug sensitivity score
[22] | 0
[23] | 0
[24] | 0

C[C@]12C=CC(=O)C=C1CC[C@@H]1[C@@H]2[C@@H](O)C[C@@]2(C)[C@H]1CC[C@]2(O)C(=O)CO [Prednisolone]
Conditions | normalised viability [%]
[1], 100 nM | 79.9
[2], 10 nM | 101
[3], 10 nM | 105
[4], 10 nM | 125
[4], 1000 nM | 98.8
[4], 10000 nM | 100
[5], 10 nM | 111
[5], 1000 nM | 92.2
[5], 10000 nM | 105
[6], 10 nM | 87.5
[6], 1000 nM | 73.7
[6], 10000 nM | 86.8
[7], 3 nM | 93.8
[7], 30 nM | 118
[7], 100 nM | 107
[8], 3 nM | 102
[8], 30 nM | 98.3
[8], 100 nM | 98.4
[9], 3 nM | 101
[9], 30 nM | 105
[9], 100 nM | 119
[10], 3 nM | 107
[10], 30 nM | 116
[10], 100 nM | 98.1
[11], 10 nM | 98
[11], 1000 nM | 87.9
[11], 10000 nM | 96.3
[12], 10 nM | 111
[12], 1000 nM | 92.2
[12], 10000 nM | 84.9
[13], 10 nM | 91.7
[13], 1000 nM | 108
[13], 10000 nM | 99.1
[14], 3 nM | 112
[14], 30 nM | 124
[14], 100 nM | 108
[15], 10 nM | 111
[15], 1000 nM | 107
[15], 10000 nM | 107
[16], 10 nM | 113
[16], 1000 nM | 129
[16], 10000 nM | 117
[17], 10 nM | 82.4
[17], 1000 nM | 73.5
[17], 10000 nM | 108
[18], 3 nM | 107
[18], 30 nM | 106
[18], 100 nM | 95.5
[19], 10 nM | 102
[19], 1000 nM | 115
[19], 10000 nM | 101
[20], 10 nM | 95.7
[20], 1000 nM | 100
[20], 10000 nM | 96.9
[21], 10 nM | 114
[21], 1000 nM | 101
[21], 10000 nM | 89.3

Conditions | drug sensitivity score
[22] | 0
[23] | 1.2
[24] | 0
